Source: patent publication US4115587A, “Fatty acid amides of norfenfluramine and compositions and methods thereof” (A. H. Robins Company, Inc., priority 1976, dated 1978)
Read-outs that look alike come from different tables or passages of the source.

What was measured:
[1] = system: Serum Triglycerides and Cholesterol; experiment: Triton-induced hyperlipidemia test (Table 1); format: in vivo, male Sprague-Dawley rats; settings: 140 mg/kg p.o.; for % Change Cholesterol / % Change Triglycerides: vs control; for Serum Cholesterol / Serum Triglycerides: ± SD
Procedure: Fasted, male Sprague-Dawley rats weighing 250-350 g were fed ad libitum a commercial lab chow with free access to water. The animals were fasted overnight and administered Triton-WR-1339 (produced by Ruger Chemical Company, Inc., Irvington, New Jersey) as described by Schurr et al.; Lipids 7 68(1972) except the procedure was modified to use the saphenous vein and divided doses of 70 mg/kg. The rats were anesthetized with sodium pentobarbital and terminally bled by heart puncture. Serum was stored at -20° C. until it was analyzed for total cholesterol and triglycerides. Comparison was also made with clofibrate.

[2] = system: β-Sterol Synthesis, Ileum; experiment: β-Sterol synthesis, acetate-1-14C incorporation, ileum (Table 8); format: in vivo, male Sprague-Dawley rats; settings: Ileum; 140 mg/kg p.o.; ± S.D.
Procedure: (§1) The effect of the mixed amides of Example 5 and reference compounds on β Sterol synthesis was determined by a modified procedure of Hill and Dvornik Arch. Biochem. Biophys. 114 (1966), 88. Male Sprague-Dawley rates weighing 127-175 g. were freely provided a basal semi-purified diet and water. The rats were housed in cages with raised wire floors in a room kept at a temperature of 24°-26° C. with a 12-hour day-12-hour night cycle. The cycle was reversed so the night cycle corresponded to the working day to take advantage of the circadian rhythm that favors cholesterol synthesis. The test period was five days and 20 μCi sodium acetate-1-^14 C (Sp. act. 56 mCi/m mole) administered intraperitoneally. Animals were sacrificed under carbon dioxide and the distal 10 cm of the ileum as well as the median and left liver lobes excised and homogenized. Subsequently, the β Sterols were isolated as the digitonide and the radioactivity determined in a Packard Tricarb Liquid Scintillation Spectrometer Model 3385 using 0.5% 2,5 diphenyloxazole and 8% naphthalene in a solvent mixture of 40% toluene, 40% dioxane and 20% absolute ethanol. Data for the effect of the mixed amides of Example 5 on the synthesis of nonsaponifiable substances and β Sterols as determined by the Digitonide method are shown in Table 8. […] A prior art compound, α-methylbenzyllinoleamide at 140 mg/kg, p.o. had no effect on cholesterol synthesis in either tissue.

[3] = Dietary-induced hyperlipemia test, basal semi-purified diet: liver weight, body weight, food consumption (Table 2); format: in vivo, male Sprague-Dawley rats; settings: .2% in food
Procedure: (§2) General feeding experiments were conducted on rats to determine the effect of the amides of this invention on serum and liver lipids of animals fed a basal diet and a basal diet supplemented with cholesterol. In addition, the effect of these drugs on serum lipoproteins was studied as well as their effect on body weight, gross feed efficiency, liver weight, appetite and energy utilization with respect to their metabolic size. Male, Sprague-Dawley rats weighing 150-175 g. were housed in cages with raised wire floors in a room kept at a temperature of 24°-26° C. with a 12-hour day and 12-hour night cycle, fed ad libitum a semipurified diet consisting by weight % composition: vitamin-free casein, 20; glucose, 63; hydrogenated coconut oil, 10; GBI Vitamin Fortification Mixture, Cat. #40060 obtained from General Biochemical Company of Chargrin Falls, Ohio, 1; modified salt mix of Williams and Briggs, Cat. #170911 obtained from General Biochemical Company, 4; and cellulose, 2; and watered. The modified salt mix provided the following amounts in grams of elements per Kg. of diet:
(§3) Diets were supplemented with 0.5% cholic acid, 1% cholesterol, and drug at the expense of glucose. The experimental period was 18-21 days with body weight and food measured at specified intervals. Animals were fasted overnight and terminally bled by cardiac puncture. Blood was anti-coagulated with ethylenediamine tetracetic acid and plasma was separated by centrifugation, and stored at -20° C. Livers were excised, weighed, and stored at -20° C. All samples remained at this temperature until they were analyzed for total lipids, total cholesterol, triglycerides and phospholipids. Gross feed efficiency together with the effect of metabolic size on food intake and the effect of drug on energy utilization were determined.
(§4) Results of testing the mixed amides of Example 5 and reference compounds in rats on a basal diet according to the foregoing procedure for dietary induced hyperlipemia are in Tables 2 and 3.

Serum and Liver Lipids [4] = experiment: Dietary-induced hyperlipemia test, basal diet with cholesterol: serum and liver lipids (Table 5); format: in vivo, male Sprague-Dawley rats; settings: .2% in food, ± S.D.
Procedure: as §2, §3
(§5) Results of testing the mixed amides of Example 5 an reference compounds in rats on a basal diet with added cholesterol according to the foregoing procedure for dietary induced hyperlipemia are in Tables 4 and 5.

Serum and Liver Lipids [5] = experiment: Dietary-induced hyperlipemia test, basal semi-purified diet: serum and liver lipids (Table 3); format: in vivo, male Sprague-Dawley rats; settings: .2% in food, ± S.D.
Procedure: as §2, §3, §4

[6] = format: in vivo, male Sprague-Dawley rats; settings: cholesterol diet, .2% in food
Procedure: as §2, §3, §5

[7] = system: β-Sterol Synthesis, Liver; experiment: β-Sterol synthesis, acetate-1-14C incorporation, liver (Table 8); format: in vivo, male Sprague-Dawley rats; settings: Liver; 140 mg/kg p.o.; ± S.D.
Procedure: as §1

Serum Lipoproteins = experiment: Serum lipoproteins of rats fed semi-purified diet supplemented with cholesterol (Table 7); format: in vivo; settings: .2% in food
Procedure: as §2, §3
^a VLDL, very low density lipoproteins; LDL, low density lipoproteins
and HDL, high density lipoproteins as determined on a Beckman-Gilford

[8] = Motor activity, modification of the method of Cook et al.; format: in vivo, female albino mice, ICR strain; settings: 6.5 mg/kg, i.p.
From the text: Motor activity of norfenfluramine and the amides of norfenfluramine of this invention were compared by determination of the activity in female, albino mice of the ICR strain by a modification of the method of Cook et al. in J. Pharmac. Exp. Ther. 113:11a (1955).

[9] = Neurotoxicity, tremors and lethality; format: in vivo, mice; settings: i.p.
Serum and Liver Lipids [10] = experiment: Linoleamide of norfenfluramine in rats fed a hypercholesteremic diet: serum and liver lipids (Table 6); format: in vivo; settings: 0.2% in food
Procedure: as §2, §3
(a) ± values are standard deviation of 10 animals per group.
(b) Semi-purified diet supplemented with 1% cholesterol and 0.5% cholic
acid at expense of glucose.

Compound: CCCCCCCCCCCCCCCCCC(=O)NC(C)Cc1cccc(C(F)(F)F)c1 (centres unmarked) [Ex.4, N-[1-methyl-2-(3-trifluoromethylphenyl)ethyl]octadecanamide]
- % Change Cholesterol ([1]; Test Group IV): -24%
- % Change Triglycerides ([1]; Test Group IV): -74%
- Serum Cholesterol ([1]; Test Group IV): 214.3 ± 91.6 mg/100 ml
- Serum Triglycerides ([1]; Test Group IV): 160.0 ± 110.0 mg/100 ml

Compound: CCOC(=O)C(C)(C)Oc1ccc(Cl)cc1 [Clofibrate, ethyl p-chlorophenoxyisobutyrate]
- Acetate-1-14C incorporated, Digitonide [2]: 6.098 ± .909 n moles/g tissue
- Acetate-1-14C incorporated, Non-saponifiable [2]: 6.774 ± 1.447 n moles/g tissue
- Food Consumed [3]: 306 g
- Gross Feed Efficiency ([3]; gross weight gain in grams/total food consumed in grams): .180
- Body wt, Final ([3]; ± S.D.): 210 ± 21 g
- Liver wt per 100 g body wt. ([3]; ± S.D.): 4.4 ± .4 g
- Liver wt, Total ([3]; ± S.D.): 9.2 ± .4 g
- % Change Cholesterol ([1]; Test Group I): -24.0%
- % Change Triglycerides ([1]; Test Group I): -79%
- Serum Cholesterol ([1]; Test Group I): 173.0 ± 54.0 mg/100 ml
- Serum Triglycerides ([1]; Test Group I): 124.5 ± 7.8 mg/100 ml
- % Change Cholesterol ([1]; Test Group II): -24%
- Serum Cholesterol ([1]; Test Group II): 94.1 ± 13.6 mg/100 ml
- % Change Triglycerides ([1]; Test Group III): -20%
- Serum Cholesterol ([1]; Test Group III): 109.3 ± 24.4 mg/100 ml
- Serum Triglycerides ([1]; Test Group III): 132.7 ± 64.5 mg/100 ml
- % Change Cholesterol ([1]; Test Group IV): -24%
- % Change Triglycerides ([1]; Test Group IV): -34%
- Serum Cholesterol ([1]; Test Group IV): 213.0 ± 14.1 mg/100 ml
- Serum Triglycerides ([1]; Test Group IV): 411.7 ± 118.0 mg/100 ml
- Liver Triglycerides (Serum and Liver Lipids [4]): 7.83 ± 2.22 mg/g
- Serum Cholesterol (Serum and Liver Lipids [4]; p<.05 for Ex. 5): 235.00 ± 68.27 mg/100 ml
- Liver Cholesterol (Serum and Liver Lipids [4]; p<.05 for all): 14.17 ± 9.10 mg/g
- Liver Lipids, Total (Serum and Liver Lipids [4]; p<.05 for all): 93.83 ± 12.06 mg/g
- Serum Lipids, Total (Serum and Liver Lipids [4]; p<.05 for all): 430.33 ± 119.37 mg/100 ml
- Serum Triglycerides (Serum and Liver Lipids [4]; p<.05 for clofibrate): 126.50 ± 47.21 mg/100 ml
- Liver Cholesterol (Serum and Liver Lipids [5]): 2.63 ± .09 mg/g
- Liver Lipids, Total (Serum and Liver Lipids [5]): 51.21 ± 7.89 mg/g
- Liver Triglycerides (Serum and Liver Lipids [5]): 1.78 ± .43 mg/g
- Serum Cholesterol (Serum and Liver Lipids [5]): 89.83 ± 8.77 mg/100 ml
- Serum Lipids, Total (Serum and Liver Lipids [5]): 143.70 ± 22.42 mg/100 ml
- Serum Triglycerides (Serum and Liver Lipids [5]): 31.83 ± 7.08 mg/100 ml
- Food Consumed [6]: 340 g
- Gross Feed Efficiency ([6]; gross weight gain/total food consumed in grams): .215
- Body wt, Final ([6]; ± S.D.): 208 ± 16 g
- Liver wt per 100 g body wt. ([6]; ± S.D.): 4.9 ± 1.2 g
- Liver wt, Total ([6]; ± S.D.): 10.4 ± 2.6 g
- Acetate-1-14C incorporated, Digitonide [7]: 1.588 ± 1.216 n moles/g tissue
- Acetate-1-14C incorporated, Non-saponifiable [7]: 2.943 ± 1.707 n moles/g tissue
- Albumin, Percentage Composition (Serum Lipoproteins): 22.63%
- HDL, Percentage Composition (Serum Lipoproteins): 9.03%
- LDL, Percentage Composition (Serum Lipoproteins): 42.56%
- VLDL, Percentage Composition (Serum Lipoproteins): 25.76%

Compound: CC(N)Cc1cccc(C(F)(F)F)c1 (centres unmarked) [norfenfluramine]
- effect on motor activity [8]: strong effect
- tremors ([9]; 40 mg/kg): tremors were observed
- lethality ([9]; 100 mg/kg): lethality

Compound: CCCCC/C=C\C/C=C\CCCCCCCC(=O)NC(C)Cc1cccc(C(F)(F)F)c1 (stereo not drawn) [Ex. 1, N-[1-methyl-2-(3-trifluoromethylphenyl)ethyl]octadeca-9,12-dienamide(cis-cis)]
- % Change Triglycerides ([1]; Test Group I): -54%
- Serum Cholesterol ([1]; Test Group I): 209.0 ± 16.4 mg/100 ml
- Serum Triglycerides ([1]; Test Group I): 268.7 ± 69.6 mg/100 ml
- Liver Cholesterol (Serum and Liver Lipids [10]; SD 0.73 (10 animals), p<.05): 7.15 mg/g
- Liver Triglycerides (Serum and Liver Lipids [10]; SD 3.67 (10 animals), p<.05): 5.59 mg/g
- Serum Phospholipids (Serum and Liver Lipids [10]; SD 18.4 (10 animals)): 105.4 mg/100 ml
- Serum Cholesterol (Serum and Liver Lipids [10]; SD 30 (10 animals), p<.05): 212 mg/100 ml
- Serum Triglycerides (Serum and Liver Lipids [10]; SD 62 (10 animals), p<.05): 156 mg/100 ml
- Liver Phospholipids (Serum and Liver Lipids [10]; SD printed + 8.75 (10 animals)): 24.1 mg/g
